The first assay concerns parasites (ring stage, in human red blood cell culture). As to the kind of experiment: Parasite LDH growth assay (antiparasite potency, Parasite Assay). Type of assay: cell-based, Plasmodium falciparum. Conditions: 0.7% rings, 2% haematocrit, 72 hours at 37° C., LDH readout of parasite growth. In short, it runs like this: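 Ring-stage parasites at 0.7% parasitemia and 2% haematocrit, in RPMI-Hepes/bicarbonate with 5% heat-inactivated human serum and 0.5% albumax, were added to compound-containing medium. Cultures grew 72 h at 37 °C in gassed humidified boxes. Plates were then frozen overnight at −80 °C, thawed 4 h, and growth was measured by LDH assay.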
One may read the EC50 as the concentration giving half of the maximal effect. Read a high EC50 as weaker potency. For the compound `CCOC(=O)C1(C)Oc2ccccc2C1NC(=O)c1ccc2c(c1)[C@H](N1C(=N)NC(CC)(CC)CC1=O)CCO2` (stereo partly drawn) [Example 275, ethyl 3-[[(4R)-4-(4,4-diethyl-2-imino-6-oxo-hexahydropyrimidin-1-yl)chromane-6-carbonyl]amino]-2-methyl-3H-benzofuran-2-carboxylate], the half-maximal effective concentration (EC50) turned out to be 25.7 nM. The same measure, in the same setting: under `CCC1(CC)CC(=O)N([C@@H]2CCS(=O)(=O)c3ccc(C(=O)N[C@H]4CC(C)(C)Oc5ccccc54)cc32)C(=N)N1` [Example 289, (4R)-4-(4,4-diethyl-2-imino-6-oxo-hexahydropyrimidin-1-yl)-N-[(4S)-2,2-dimethylchroman-4-yl]-1,1-dioxo-3,4-dihydro-2H-thiochromane-6-carboxamide] stands 0.6 nM.

The assay is the same for the next values; noted with them: Plasmodium falciparum, Erythrocyte, 72 h, 0.7% rings, 2% haematocrit, 72 hours at 37° C., LDH readout of parasite growth.
On to `CC[C@]1(C)CC(=O)N([C@@H]2CCOc3ccc(C(=O)N[C@H]4C[C@H](COC(F)F)Oc5ccccc54)cc32)C(=N)N1` [Example 269, (4R)-N-[(2R,4S)-2-(difluoromethoxymethyl)chro-man-4-yl]-4-[(4R)-4-ethyl-2-imino-4-methyl-6-oxo-hexahydropyrimidin-1-yl]chromane-6-carboxamide], for which the EC50 came out at 2.9 nM. `CC[C@]1(C)CC(=O)N([C@@H]2CCOc3ccc(C(=O)N[C@H]4C[C@@H](COC(F)F)Oc5ccccc54)cc32)C(=N)N1` [Example 270, (4R)-N-[(2S,4S)-2-(difluoromethoxymethyl)chro-man-4-yl]-4-[(4R)-4-ethyl-2-imino-4-methyl-6-oxo-hexahydropyrimidin-1-yl]chromane-6-carboxamide] had an EC50 of 1.8 nM. The same measure, in the same setting: the value for `CCC1(CC)CC(=O)N([C@@H]2CCOc3ccc(C(=O)NC4c5ccc(C(F)(F)F)cc5CC4N)cc32)C(=N)N1` (stereo partly drawn) [Example 271, (4R)-N-[2-amino-5-(trifluoromethyl)indan-1-yl]-4-(4,4-diethyl-2-imino-6-oxo-hexahydropyrimidin-1-yl)chromane-6-carboxamide] was 182 nM. On the same count and under the same terms, the value for `CC1(C)CC(=O)N([C@@H]2CCOc3ccc(C(=O)N[C@@H]4c5cc(Cl)cc(Cl)c5OC[C@@]4(C)O)cc32)C(=N)N1` [Example 273, (4R)-N-[(3S,4R)-6,8-dichloro-3-hydroxy-3-methyl-chroman-4-yl]-4-(2-imino-4,4-dimethyl-6-oxo-hexahydropyrimidin-1-yl)chromane-6-carboxamide] was 7.8 nM; that for `CCC1(CC)CC(=O)N(C2CC(C(=O)N(C)C)Oc3ccc(C(=O)N[C@@H]4c5ccccc5C[C@H]4O)cc32)C(=N)N1` (stereo partly drawn) [Example 274, 4-(4,4-diethyl-2-imino-6-oxo-hexahydropyrimidin-1-yl)-N6-[(1R,2R)-2-hydroxyindan-1-yl]-N2,N2-dimethyl-chromane-26,-dicarboxamide] was 98.5 nM; that for `CCC1(CC)CC(=O)N([C@H]2c3cc(C(=O)N[C@@H]4c5ccccc5OC(C)(C)[C@H]4O)ccc3CC[C@@H]2OC)C(=N)N1` [Example 276, (3S,4S)-4-(4,4-diethyl-2-imino-6-oxo-hexahydropyrimidin-1-yl)-N-[(3S,4R)-3-hydroxy-2,2-dimethyl-chroman-4-yl]-3-methoxy-tetralin-6-carboxamide] was 0.6 nM.

`CCC1(CC)CC(=O)N([C@H]2c3cc(C(=O)N[C@@H]4c5ccccc5OC[C@]4(C)O)ccc3O[C@]2(C)COC)C(=N)N1` [Example 278, (2S,3S)-3-(4,4-diethyl-2-imino-6-oxo-hexahydropyrimidin-1-yl)-N-[(3R,4R)-3-hydroxy-3-methyl-chroman-4-yl]-2-(methoxymethyl)-2-methyl-3H-benzofuran-5-carboxamide] yielded an EC50 of 12.2 nM. For `CCC1(CC)CC(=O)N([C@H]2c3cc(C(=O)N[C@@H]4c5ccccc5OC[C@@]4(C)O)ccc3O[C@]2(C)COC)C(=N)N1` [Example 279, (2S,3S)-3-(4,4-diethyl-2-imino-6-oxo-hexahydropyrimidin-1-yl)-N-[(3S,4R)-3-hydroxy-3-methyl-chroman-4-yl]-2-(methoxymethyl)-2-methyl-3H-benzofuran-5-carboxamide], the EC50 is 31.4 nM. Still for that read-out and setting: under `CCC1(CC)CC(=O)N([C@H]2c3cc(C(=O)N[C@@H]4c5ccccc5OC[C@@]4(C)O)ccc3O[C@@]2(C)COC)C(=N)N1` [Example 281, (2R,3S)-3-(4,4-diethyl-2-imino-6-oxo-hexahydropyrimidin-1-yl)-N-[(3S,4R)-3-hydroxy-3-methyl-chroman-4-yl]-2-(methoxymethyl)-2-methyl-3H-benzofuran-5-carboxamide] stands 1.1 nM.

In turn, `CCC1(CC)CC(=O)N([C@@H]2C[C@@H](COC)Oc3ccc(C(=O)N[C@@H]4c5ccccc5OC[C@@]4(C)O)cc32)C(=N)N1` [Example 283, (2S,4R)-4-(4,4-diethyl-2-imino-6-oxo-hexahydropyrimidin-1-yl)-N-[(3S,4R)-3-hydroxy-3-methyl-chroman-4-yl]-2-(methoxymethyl)chromane-6-carboxamide] came in with an EC50 of 2.6 nM. On the same count and under the same terms, under `CC[C@]1(C)CC(=O)N(C2c3cc(C(=O)N[C@@H]4c5ccccc5OC(C)(C)[C@H]4O)ccc3OCC2(C)OC)C(=N)N1` (stereo partly drawn) [Example 284, 4-[(4R)-4-ethyl-2-imino-4-methyl-6-oxo-hexahydropyrimidin-1-yl]-N-[(3S,4R)-3-hydroxy-2,2-dimethyl-chroman-4-yl]-3-methoxy-3-methyl-chromane-6-carboxamide] stands 8.5 nM. As to `CCC1(CC)CC(=O)N(C2c3cc(C(=O)N[C@@H]4c5ccccc5C[C@H]4O)ccc3OC2(COC)COC)C(=N)N1` (stereo partly drawn) [Example 285, 3-(4,4-diethyl-2-imino-6-oxo-hexahydropyrimidin-1-yl)-N-[(1R,2R)-2-hydroxyindan-1-yl]-2,2-bis(methoxymethyl)-3H-benzofuran-5-carboxamide], a half-maximal response (EC50) required 35.5 nM. `CCC1(CC)CC(=O)N([C@@H]2c3cc(C(=O)N[C@@H]4c5ccccc5OC[C@@]4(C)O)ccc3OC[C@@H]2COC)C(=N)N1` [Example 286, (3S,4S)-4-(4,4-diethyl-2-imino-6-oxo-hexahydropyrimidin-1-yl)-N-[(3S,4R)-3-hydroxy-3-methyl-chroman-4-yl]-3-(methoxymethyl)chromane-6-carboxamide]: the EC50 came out at 240 nM. On the same count and under the same terms, the value for `CCC1(CC)CC(=O)N([C@H]2c3cc(C(=O)N[C@@H]4c5ccccc5OC[C@@]4(C)O)ccc3OC[C@H]2COC)C(=N)N1` [Example 287, (3R,4R)-4-(4,4-diethyl-2-imino-6-oxo-hexahydropyrimidin-1-yl)-N-[(3S,4R)-3-hydroxy-3-methyl-chroman-4-yl]-3-(methoxymethyl)chromane-6-carboxamide] was 1.9 nM; that for `CCC1(CC)CC(=O)N([C@H]2c3cc(C(=O)N[C@@H]4c5ccccc5OC[C@@]4(C)O)ccc3OC[C@@H]2COC)C(=N)N1` [Example 288, (3S,4R)-4-(4,4-diethyl-2-imino-6-oxo-hexahydropyrimidin-1-yl)-N-[(3S,4R)-3-hydroxy-3-methyl-chroman-4-yl]-3-(methoxymethyl)chromane-6-carboxamide] was 1.8 nM; that for `CCC1(CC)CC(=O)N([C@H]2c3cc(C(=O)N[C@@H]4c5ccccc5C(F)(F)[C@H]4O)ccc3O[C@@]2(C)COC)C(=N)N1` [Example 290, (2R,3S)-3-(4,4-diethyl-2-imino-6-oxo-hexahydropyrimidin-1-yl)-N-[(1R,2S)-3,3-difluoro-2-hydroxy-indan-1-yl]-2-(methoxymethyl)-2-methyl-3H-benzofuran-5-carboxamide] was 0.3 nM.

`CCC1(CC)CC(=O)N(C2CC(C(=O)N(C)C)Oc3ccc(C(=O)N[C@@H]4c5ccccc5C[C@@]4(C)O)cc32)C(=N)N1` (stereo partly drawn) [Example 292, 4-(4,4-diethyl-2-imino-6-oxo-hexahydropyrimidin-1-yl)-N6-[(1R,2R)-2-hydroxy-2-methyl-indan-1-yl]-N2,N2-dimethyl-chromane-2,6-dicarboxamide] returned a concentration for a half-maximal effect (EC50) of 49.7 nM. As to `CC1(C)CC(=O)N([C@@H]2CCS(=O)(=O)c3ccc(C(=O)N[C@H]4C[C@H](C(F)(F)F)Oc5ccccc54)cc32)C(=N)N1` [Example 293, (4R)-4-(2-imino-4,4-dimethyl-6-oxo-hexahydropyrimidin-1-yl)-1,1-dioxo-N-[(2R,4S)-2-(trifluoromethyl)chroman-4-yl]-3,4-dihydro-2H-thiochromene-6-carboxamide], a half-maximal effect (EC50) was put at 2.8 nM.

For `CC1(C)CC(=O)N([C@H]2CCS(=O)(=O)c3ccc(C(=O)N[C@H]4C[C@H](C(F)(F)F)Oc5ccccc54)cc32)C(=N)N1` [Example 294, (4S)-4-(2-imino-4,4-dimethyl-6-oxo-hexahydropyrimidin-1-yl)-1,1-dioxo-N-[(2R,4S)-2-(trifluoromethyl)chroman-4-yl]-3,4-dihydro-2H-thiochromene-6-carboxamide], the response was half-maximal at 259 nM (EC50). Still for that read-out and setting: the value for `CCC1(CC)CC(=O)N([C@@H]2c3cc(C(=O)N[C@@H]4c5ccccc5OC(C)(C)[C@H]4O)ccc3OC[C@@]2(C)OC)C(=N)N1` [Example 295, (3S,4R)-4-(4,4-diethyl-2-imino-6-oxo-hexahydropyrimidin-1-yl)-N-[(3S,4R)-3-hydroxy-2,2-dimethyl-chroman-4-yl]-3-methoxy-3-methyl-chromane-6-carboxamide] was 100 nM. As for `CCC1(CC)CC(=O)N([C@H]2c3cc(C(=O)N[C@@H]4c5ccccc5OC(C)(C)[C@H]4O)ccc3OC[C@]2(C)OC)C(=N)N1` [Example 296, (3R,4S)-4-(4,4-diethyl-2-imino-6-oxo-hexahydropyrimidin-1-yl)-N-[(3S,4R)-3-hydroxy-2,2-dimethyl-chroman-4-yl]-3-methoxy-3-methyl-chromane-6-carboxamide], the midpoint of the response, the EC50, lay at 0.3 nM. Still for that read-out and setting: under `CCC1(CC)CC(=O)N(C2c3cc(C(=O)N[C@@H]4c5ccccc5C[C@@]4(C)O)ccc3OC2(COC)COC)C(=N)N1` (stereo partly drawn) [Example 297, 3-(4,4-diethyl-2-imino-6-oxo-hexahydropyrimidin-1-yl)-N-[(1R,2R)-2-hydroxy-2-methyl-indan-1-yl]-2,2-bis(methoxymethyl)-3H-benzofuran-5-carboxamide] stands 241 nM.

Values taken from US12350270B2, “Antimalarial agents” (Merck Sharp & Dohme LLC, priority 2019, dated 2025).
